Consider 18 compounds from patent US11130740B2, “Substituted 2,3-dihydro-1H-indene analogs and methods using same” (Arbutus Biopharma Corporation, priority 2017, dated 2021).

Chain of PD-L1 His protein / PD-1 Fc protein (Q9NZQ7 19-238): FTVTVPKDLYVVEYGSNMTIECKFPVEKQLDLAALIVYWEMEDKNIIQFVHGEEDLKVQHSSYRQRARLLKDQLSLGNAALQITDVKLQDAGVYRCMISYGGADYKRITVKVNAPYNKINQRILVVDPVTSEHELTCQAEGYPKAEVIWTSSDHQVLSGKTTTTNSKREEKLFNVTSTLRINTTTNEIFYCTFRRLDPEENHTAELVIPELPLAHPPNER

For the experiment, the target named is PD-L1 His protein / PD-1 Fc protein (Homo sapiens (Human), UniProt Q9NZQ7). Put plainly: HTRF assay (PD-1/PD-L1 interaction). The format is binding. Conditions: PD-L1 His 6 nM, PD-1 Fc 6 nM; inhibitors diluted 3-fold from 20 μM. Here is the method:
PD-L1 His protein was prepared and added at the final concentration of 6 nM in the White opaque 384 well plate (Corning cat #3824BC). PD-L1 small molecule inhibitors were diluted by 3-fold starting from 20 μM and a final concentration of 0.001 μM and added to the well. PD-1 Fc protein was added at the final concentration of 6 nM. PD-L1 His protein, PD-L1 small molecule inhibitors, and PD1 Fc proteins were added to the well in this order, with each 5 μl volume, and were incubated for 15 minutes at room temperature. PAb anti-Human IgG-XL665 (Cisbio, cat #61HFCXLA) and Mab anti-6HIS Tb cryptate Gold (Cisbio, cat #61HI2TLA) were mixed at 6.7 nM and 0.35 nM respectively, and total 5 μl volume of mixture was added to the well and incubated at room temperature for 1 hour. The plate was read using PerkinElmer Envision plate reader and data was analyzed by Prism 6 software.
Turning to `CC(=O)NCCNC1CCc2cc(OCc3cccc(-c4ccccc4)c3C)ccc21` (stereo not drawn) [Compound 16C, N-(2-((5-((2-methyl-[1,1′-biphenyl]-3-yl)methoxy)-2,3-dihydro-1H-inden-1-yl)amino)ethyl)acetamide], the 50% inhibitory concentration (IC50) (commonly the concentration that inhibits the measured activity by half) stood at 379 nM. Compound `Cc1c(COc2ccc3c(c2)C[C@H](O)[C@H]3NCCS(C)(=O)=O)cccc1-c1ccccc1` [Compound 10C_2, (1S,2S)-5-((2-methyl-[1,1′-biphenyl]-3-yl)methoxy)-1-((2-(methylsulfonyl)ethyl)amino)-2,3-dihydro-1H-inden-2-ol] showed an IC50 of over 20000 nM. The result for `CC(=O)NCCN[C@@H]1c2ccc(OCc3cccc(-c4ccccc4)c3C)cc2C[C@@H]1O` [Compound 10A_l_2, N-(2-(((1R,2S)-2-hydroxy-5-((2-methyl-[1,1′-biphenyl]-3-yl)methoxy)-2,3-dihydro-1H-inden-1-yl)amino)ethyl)acetamide] reads 5090 nM. The result for `CC(=O)NCCN[C@@H]1c2ccc(OCc3cccc(-c4ccccc4)c3C)cc2C[C@H]1O` [Compound 10A_2_1, N-(2-(((1R,2R)-2-hydroxy-5-((2-methyl-[1,1′-biphenyl]-3-yl)methoxy)-2,3-dihydro-1H-inden-1-yl)amino)ethyl)acetamide] reads 5000 nM; that for `Cc1c(COc2ccc3c(c2)C[C@H](O)[C@H]3NCCO)cccc1-c1ccccc1` [Compound 10F_2, (1S,2S)-1-((2-hydroxyethyl)amino)-5-((2-methyl-[1,1′-biphenyl]-3-yl)methoxy)-2,3-dihydro-1H-inden-2-ol], 1170 nM; that for `CC(=O)NCCNC1COc2cc(OCc3cccc(-c4ccc5c(c4)OCCO5)c3C)ccc21` (stereo not drawn) [Compound 16B, N-(2-((6-((3-(2,3-dihydrobenzo[b][1,4]dioxin-6-yl)-2-methylbenzyl)oxy)-2,3-dihydrobenzofuran-3-yl)amino)ethyl)acetamide], 3800 nM. Regarding `CC(=O)NCCN[C@H]1c2ccc(OCc3cccc(-c4ccccc4)c3C)cc2C[C@@H]1O` [Compound 10A_2_2, N-(2-(((1S,2S)-2-hydroxy-5-((2-methyl-[1,1′-biphenyl]-3-yl)methoxy)-2,3-dihydro-1H-inden-1-yl)amino)ethyl)acetamide], inhibition was half-maximal at 170 nM (IC50). The result for `CC(=O)NCCNC1CCc2cc(OCc3cccc(-c4ccc5c(c4)OCCO5)c3C)ccc21` (stereo not drawn) [Compound 16D, N-(2-((5-((3-(2,3-dihydrobenzo[b][1,4]dioxin-6-yl)-2-methylbenzyl)oxy)-2,3-dihydro-1H-inden-1-yl)amino)ethyl)acetamide] reads 323 nM. The result for `CC(=O)NCCN[C@@H]1c2ccc(OCc3cccc(-c4ccccc4)c3C)cc2C[C@@H]1O` [Compound 10A_l, N-(2-(((1R,2S)-2-hydroxy-5-((2-methyl-[1,1′-biphenyl]-3-yl)methoxy)-2,3-dihydro-1H-inden-1-yl)amino)ethyl)acetamide] reads 1080 nM; that for `Cc1c(COc2ccc3c(c2)C[C@H](O)[C@@H]3NCCO)cccc1-c1ccccc1` [Compound 10F_1, (1R,2S)-1-((2-hydroxyethyl)amino)-5-((2-methyl-[1,1′-biphenyl]-3-yl)methoxy)-2,3-dihydro-1H-inden-2-ol], 1320 nM. Take `Cc1c(COc2ccc3c(c2)C[C@H](O)[C@H]3NCCN2CCOCC2)cccc1-c1ccccc1` [Compound 10E_2, (1S,2S)-5-((2-methyl-[1,1′-biphenyl]-3-yl)methoxy)-1-((2-morpholinoethyl)amino)-2,3-dihydro-1H-inden-2-ol]: the IC50 is 1080 nM.

`Cc1c(COc2ccc3c(c2)C[C@H](O)C3NCCN2CCN(C)CC2)cccc1-c1ccccc1` (stereo partly drawn) [Compound 10D, (2S)-5-((2-methyl-[1,1′-biphenyl]-3-yl)methoxy)-1-((2-(4-methylpiperazin-1-yl)ethyl)amino)-2,3-dihydro-1H-inden-2-ol] came in with a half-maximal inhibitory concentration (IC50) of 5150 nM. The result for `CC(=O)NCCN[C@H]1c2ccc(OCc3cccc(-c4ccccc4)c3C)cc2C[C@H]1O` [Compound 10A_l_1, N-(2-(((1S,2R)-2-hydroxy-5-((2-methyl-[1,1′-biphenyl]-3-yl)methoxy)-2,3-dihydro-1H-inden-1-yl)amino)ethyl)acetamide] reads 863 nM. The result for `CC(=O)NCCN[C@@H]1c2ccc(OCc3cccc(-c4ccc5c(c4)OCCO5)c3C)cc2C[C@@H]1O` [Compound 10B_1, N-(2-(((1R,2S)-5-((3-(2,3-dihydrobenzo[b][1,4]dioxin-6-yl)-2-methylbenzyl)oxy)-2-hydroxy-2,3-dihydro-1H-inden-1-yl)amino)ethyl)acetamide] reads 3140 nM; that for `CC(=O)NCCN[C@H]1c2ccc(OCc3cccc(-c4ccccc4)c3C)cc2C[C@@H]1O` [Compound 10A_2, N-(2-(((1S,2S)-2-hydroxy-5-((2-methyl-[1,1′-biphenyl]-3-yl)methoxy)-2,3-dihydro-1H-inden-1-yl)amino)ethyl)acetamide], 204 nM; that for `Cc1c(COc2ccc3c(c2)C[C@H](O)[C@@H]3NCCN2CCOCC2)cccc1-c1ccccc1` [Compound 10E_1, (1R,2S)-5-((2-methyl-[1,1′-biphenyl]-3-yl)methoxy)-1-((2-morpholinoethyl)amino)-2,3-dihydro-1H-inden-2-ol], 7780 nM.

Compound `Cc1c(COc2ccc3c(c2)C[C@H](O)[C@@H]3NCCS(C)(=O)=O)cccc1-c1ccccc1` [Compound 10C_l, (1R,2S)-5-((2-methyl-[1,1′-biphenyl]-3-yl)methoxy)-1-((2-(methylsulfonyl)ethyl)amino)-2,3-dihydro-1H-inden-2-ol] came in with a half-inhibitory concentration (IC50) of over 20000 nM.

`CC(=O)NCCNC1COc2cc(OCc3cccc(-c4ccccc4)c3C)ccc21` (stereo not drawn) [Compound 16A, N-(2-((6-((2-methyl-[1,1′-biphenyl]-3-yl)methoxy)-2,3-dihydrobenzofuran-3-yl)amino)ethyl)acetamide] returned a half-inhibitory concentration (IC50) of 3600 nM.
